# Test results published in US12617783B2, “Heterocyclic GLP-1R agonists” (BIOMEA FUSION, INC., priority 2024, dated 2026).
# Target: T1, human GLP-1R (Homo sapiens, UniProt P43220)
# T1 construct: host or cells: HEK293
# Assay: GLP-1R cAMP assay (Example B1a, HTRF, 30 min at room temperature)
# Type: cell-based
# Conditions: cAMP accumulation in HEK293 expressing human GLP-1R, no BETP, 30 min room temperature (Method B1a, compounds ID 1-609), Table 1; read-out: EC50
# Procedure: Assay was carried out with HEK293 expressing human GLP-1R using HTRF assay, developed by Wuxi Apptec. The method is a competitive assay between native cAMP produced by the cells and exogenous cAMP labeled with a proprietary dye d2. The tracer binding is visualized by a mAb anti-cAMP labeled with Cryptate. The signal (i.e. energy transfer) is inversely proportional to the concentration of CAMP in either standard or experimental sample. Compounds were tested in the absence of BETP. Ten microliter of cell suspension in assay buffer (5 mM HEPES, 500 μM IBMX, 0.1% BSA) were added to each well (1,000 cells per well) in a low volume 384-well plate for the assay. Serially diluted compounds were added in 100 nL volume to duplicate wells, by Labcyte Echo. GLP-1 (7-37) was used as positive control. Assay plate was incubated for 30 minutes at room temperature. Stock of cAMP Detection Solution was prepared by mixing 38 parts of cAMP lysis buffer, 1 part of cAMP-D2, 1 part of anti-cAMP cryptate reagent (Cisbio #62AM4PEJ). Ten microliter of the cAMP Detection Solution was added to each well, and the assay plate was incubated for 1 hour at room temperature in the dark. Plates were read on Envision plate reader. The data were analyzed by ScreenUltra in Dotmatics, with % activation expressed using following formula: (Well data−negative control)/(postive control−negative control)*100. Dose response curves were plotted and EC50 values calculated by non-linear regression using 4-parameter fit.
# T1 sequence (P43220 24-463): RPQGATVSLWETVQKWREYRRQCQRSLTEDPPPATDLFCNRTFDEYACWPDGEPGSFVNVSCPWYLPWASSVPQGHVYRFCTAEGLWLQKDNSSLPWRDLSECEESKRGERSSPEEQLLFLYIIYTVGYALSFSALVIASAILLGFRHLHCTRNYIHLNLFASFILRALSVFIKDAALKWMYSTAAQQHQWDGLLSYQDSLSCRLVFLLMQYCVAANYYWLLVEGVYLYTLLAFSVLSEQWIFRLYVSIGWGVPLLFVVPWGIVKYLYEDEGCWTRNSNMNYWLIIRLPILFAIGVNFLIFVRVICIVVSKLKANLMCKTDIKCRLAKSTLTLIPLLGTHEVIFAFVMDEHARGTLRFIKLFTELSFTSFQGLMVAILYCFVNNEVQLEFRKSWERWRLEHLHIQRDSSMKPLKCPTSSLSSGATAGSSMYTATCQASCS
row,Structure (SMILES),EC50 [µM]
1,"Cc1cc(-n2nc3c(c2-n2ccn(-c4ccc5c(cnn5C)c4F)c2=O)[C@@H]2CC[C@H](C3)N2C(=O)c2cc3cc([C@H]4CCOC(C)(C)C4)ccc3n2[C@@]2(C(=O)NS(=O)(=O)N(C)C)C[C@@H]2C)cc(C)c1F [Compound 205, cis-(1S,2S)-N-(dimethylsulfamoyl)-1-[5-[(4S)-2,2-dimethyltetrahydropyran-4-yl]-2-[(1S,8R)-4-(4-fluoro-3,5-dimethyl-phenyl)-3-[3-(4-fluoro-1-methyl-indazol-5-yl)-2-oxo-imidazol-1-yl]-4,5,11-triazatricyclo[6.2.1.02,6]undeca-2,5-diene-11-carbonyl]indol-1-yl]-2-methyl-cyclopropanecarboxamide]",> 10
2,"Cc1cc(-n2nc3c(c2-n2ccn(-c4ccc5c(cnn5C)c4F)c2=O)[C@@H]2CCC[C@H](C3)N2S(=O)(=O)c2cc3cc([C@H]4CCOC5(CC5)C4)ccc3n2[C@]2(c3noc(=O)[nH]3)C[C@@H]2C)cc(C)c1F [Compound 609, 3-[(1R,2S)-1-[2-[[(1S,8R)-4-(4-fluoro-3,5-dimethyl-phenyl)-3-[3-(4-fluoro-1-methyl-indazol-5-yl)-2-oxo-imidazol-1-yl]-4,5,12-triazatricyclo[6.3.1.02,6]dodeca-2,5-dien-12-yl]sulfonyl]-5-[(7S)-4-oxaspiro [2.5]octan-7-yl]indol-1-yl]-2-methyl-cyclopropyl]-4H-1,2,4-oxadiazol-5-one]",≥ 10
3,"Cc1cc(-n2nc3c(c2-n2ccn(-c4cc(F)c5c(cnn5C)c4F)c2=O)[C@@H]2CC[C@H](C3)N2C(=O)c2cc3cc([C@H]4CCOC(C)(C)C4)ncc3n2[C@@]2(c3noc(=O)[nH]3)C[C@@H]2C)cc(C)c1F [Compound 236, 3-[(1S,2S)-1-[2-[(1S,8R)-3-[3-(4,7-difluoro-1-methyl-indazol-5-yl)-2-oxo-imidazol-1-yl]-4-(4-fluoro-3,5-dimethyl-phenyl)-4,5,11-triazatricyclo[6.2.1.02,6]undeca-2,5-diene-11-carbonyl]-5-[(4S)-2,2-dimethyltetrahydropyran-4-yl]pyrrolo[2,3-c]pyridin-1-yl]-2-methyl-cyclopropyl]-4H-1,2,4-oxadiazol-5-one]",0.785
4,"Cc1cc(-n2nc3c(c2-c2nc(-c4ccc5c(cnn5C)c4F)cn2C)[C@H](C)N(C(=O)c2cc4cc([C@H]5CCOC(C)(C)C5)ccc4n2[C@@]2(c4noc(=O)[nH]4)C[C@@H]2C)CC3)cc(C)c1F [Compound 21, 3-((1S,2S)-1-(5-((S)-2,2-dimethyltetrahydro-2H-pyran-4-yl)-2-((S)-3-(4-(4-fluoro-1-methyl-1H-indazol-5-yl)-1-methyl-1H-imidazol-2-yl)-2-(4-fluoro-3,5-dimethylphenyl)-4-methyl-4,5,6,7-tetrahydro-2H-pyrazolo[4,3-c]pyridine-5-carbonyl)-1H-indol-1-yl)-2-methylcyclopropyl)-1,2,4-oxadiazol-5 (4H)-one]",0.591
5,"Cc1cc(-n2nc3c(c2-c2ncn(-c4ccc5c(cnn5C)c4F)c2C)[C@H](C)N(C(=O)c2cc4cc([C@H]5CCOC(C)(C)C5)ccc4n2C2(c4noc(=O)[nH]4)CC2)CC3)cc(C)c1F [Compound 30, 3-(1-(5-((S)-2,2-dimethyltetrahydro-2H-pyran-4-yl)-2-((4S)-3-(1-(4-fluoro-1-methyl-1H-indazol-5-yl)-5-methyl-1H-imidazol-4-yl)-2-(4-fluoro-3,5-dimethylphenyl)-4-methyl-4,5,6,7-tetrahydro-2H-pyrazolo[4,3-c]pyridine-5-carbonyl)-1H-indol-1-yl)cyclopropyl)-1,2,4-oxadiazol-5 (4H)-one]",> 10
6,"Cc1cc(-n2nc3c(c2-n2ccn(-c4ccc5c(cnn5C)c4F)c2=O)[C@@H]2CC[C@H](C3)N2C(=O)c2cc3cc([C@H]4CCOC(C)(C)C4)ccc3n2[C@@]2(C(=O)N(C)C)C[C@@H]2C)cc(C)c1F [Compound 240, cis-(1S,2S)-1-[5-[(4S)-2,2-dimethyltetrahydropyran-4-yl]-2-[(1S,8R)-4-(4-fluoro-3,5-dimethyl-phenyl)-3-[3-(4-fluoro-1-methyl-indazol-5-yl)-2-oxo-imidazol-1-yl]-4,5,11-triazatricyclo[6.2.1.02,6]undeca-2,5-diene-11-carbonyl]indol-1-yl]-N,N,2-trimethyl-cyclopropanecarboxamide]",0.618
7,"Cc1cc(-n2nc3c(c2-n2ccn(-c4ccc5c(cnn5C)c4F)c2=O)[C@@H]2COC[C@H](C3)N2C(=O)c2cc3cc(C4CCOC5(CC5)C4)ccc3n2[C@@]2(c3noc(=O)[nH]3)C[C@@H]2C)cc(C)c1F (stereo partly drawn) [Compound 220, 3-((1S,2S)-1-(2-((4R,8S)-3-(3-(4-fluoro-1-methyl-1H-indazol-5-yl)-2-oxo-2,3-dihydro-1H-imidazol-1-yl)-2-(4-fluoro-3,5-dimethylphenyl)-2,4,5,7,8,9-hexahydro-4,8-epiminooxocino [5,4-c]pyrazole-10-carbonyl)-5-(4-oxaspiro[2.5]octan-7-yl)-1H-indol-1-yl)-2-methylcyclopropyl)-1,2,4-oxadiazol-5 (4H)-one]",0.795
8,"Cc1cc(-n2nc3c(c2-n2ccn(-c4ccc5c(cnn5C)c4F)c2=O)[C@H]2CC[C@@H](C3)N2C(=O)c2cc3cc([C@@H]4CCOC5(CC5)C4)ccc3n2[C@@]2(c3noc(=O)[nH]3)C[C@H]2C)cc(C)c1F [Compound 540, 3-((1S,2R)-1-(2-((4R,7S)-3-(3-(4-fluoro-1-methyl-1H-indazol-5-yl)-2-oxo-2,3-dihydro-1H-imidazol-1-yl)-2-(4-fluoro-3,5-dimethylphenyl)-2,4,5,6,7,8-hexahydro-4,7-epiminocyclohepta [c]pyrazole-9-carbonyl)-5-((R)-4-oxaspiro[2.5]octan-7-yl)-1H-indol-1-yl)-2-methylcyclopropyl)-1,2,4-oxadiazol-5 (4H)-one]",≥ 10
9,"Cc1cc(-n2nc3c(c2-n2ccn(-c4ccc5c(cnn5C)c4F)c2=O)[C@@H]2COC[C@H](C3)N2S(=O)(=O)c2cc3cc([C@H]4CCOC(C)(C)C4)ccc3n2[C@@]2(c3noc(=O)[nH]3)C[C@@H]2C)cc(C)c1F [Compound 536, 3-((1S,2S)-1-(5-((S)-2,2-dimethyltetrahydro-2H-pyran-4-yl)-2-(((4R,8S)-3-(3-(4-fluoro-1-methyl-1H-indazol-5-yl)-2-oxo-2,3-dihydro-1H-imidazol-1-yl)-2-(4-fluoro-3,5-dimethylphenyl)-2,4,5,7,8,9-hexahydro-4,8-epiminooxocino [5,4-c]pyrazol-10-yl)sulfonyl)-1H-indol-1-yl)-2-methylcyclopropyl)-1,2,4-oxadiazol-5 (4H)-one]",0.262
10,"Cc1cc(-n2nc3c(c2-n2ccn(-c4ccc5c(cnn5C)c4F)c2=O)[C@H](C)N(C(=O)c2cc4cc([C@H]5CCOC(C)(C)C5)ccc4n2C(=O)c2noc(=O)[nH]2)CC3)cc(C)c1F [Compound 115, 3-[5-[(4S)-2,2-dimethyltetrahydropyran-4-yl]-2-[(4S)-2-(4-fluoro-3,5-dimethyl-phenyl)-3-[3-(4-fluoro-1-methyl-indazol-5-yl)-2-oxo-imidazol-1-yl]-4-methyl-6,7-dihydro-4H-pyrazolo[4,3-c]pyridine-5-carbonyl]indole-1-carbonyl]-4H-1,2,4-oxadiazol-5-one]",> 10
